Test results taken from ChEMBL document CHEMBL1149016, “Plant anticancer agents, XLII. Cytotoxic constituents from Wikstroemia elliptica” (1986).
≈ marks a conversion by molar mass, not a printed value.

Tested on: P388
Assay: Cytotoxicity against mouse P388 cells
Format: functional
Details: read-out: ED50 (the source's name)

Row | Structure (SMILES) | EC50 [µg/mL]
1 | COc1cc(C[C@@H]2CO[C@@H](c3cc(OC)c(O)c(OC)c3)[C@@H]2CO)ccc1O (racemic) | 0.33 (≈ 0.845 µM)
2 | COc1cc(C[C@H]2CO[C@H](c3ccc(O)c(OC)c3)[C@H]2CO)ccc1O (racemic) [LARICIRESINOL] | 0.38 (≈ 1.05 µM)
3 | COc1cc([C@H]2OC[C@H]3[C@@H]2CO[C@@H]3c2cc(OC)c(O)c(OC)c2)cc(OC)c1O (racemic) [SYRINGARESINOL] | 0.56 (≈ 1.34 µM)
4 | COc1cc2cc(Oc3ccc4ccc(=O)oc4c3)c(=O)oc2cc1O [DAPHNORETIN] | 3.4 (≈ 9.65 µM)
5 | O=c1ccc2ccc(O)cc2o1 [UMBELLIFERONE] | 3.1 (≈ 19.1 µM)
